Test results taken from patent US20110288033A1, “Disulfide Compounds for Phototherapy” (Mallinckrodt Inc., priority 2010, published 2011).

Columns and labels:
UV spectrum in DMSO = type: physicochemical
[1] = tested on: human myeloid leukemia U937 cell line; type: cell-based; settings: 0, 2.5, 5 and 10 μM; light 0, 10, 20 minutes
Protocol: A general procedure is carried out for measuring cell viability upon exposure of cancer cells to a disulfide photosensitizer and light. The disulfide photosensitizer evaluated is a commercially available compound having formula (FX13): […]
Compound (FX13) was purchased from Sigma-Aldrich (Cat #158194). […] Preparation of compound (FX13) is known and can be found, for example, in Rath, C. Derivatives of pyridine. XII. Mercaptans and sulfonic acids of pyridine. Justus Liebigs Annalen der Chemie 1931, 487, 105-119, which is hereby incorporated by reference. Some properties of compound (FX13) are known and can be found, for example, in Grassetti, D. R.; Brokke, M. E.; Murray, J. F., Jr. The effect of some sulfur-containing pyridine derivatives on the carbohydrate metabolism of ehrlich ascites tumor. J. Med. Chem. 1965, 8, 753-756, which is hereby incorporated by reference. The cell viability analysis is carried out using a human myeloid leukemia U937 cell line by the standard WST-1 assay. […]
The disulfide photosensitizer is dissolved in DMSO at an initial concentration of about 8 mM and diluted with water to the final desired value such that amount of DMSO exposed to the cells is kept […]. […] The viability of cells is assessed after 24 hours following light exposure. […] The number of viable cells is determined and percent viability is determined: […]

## O=[N+]([O-])c1ccc(SSc2ccc([N+](=O)[O-])cn2)nc1 [FX13]
UV spectrum in DMSO
  absorption λmax: 323 nm
[1]
  change in cell viability with photosensitizer and light (FIG. 5): concentration-dependent and light exposure time-dependent decrease in cell viability
